For one experiment, the target named is T1, trypsin (Bos taurus, UniProt P00760).
T1 sequence (P00760 24-246): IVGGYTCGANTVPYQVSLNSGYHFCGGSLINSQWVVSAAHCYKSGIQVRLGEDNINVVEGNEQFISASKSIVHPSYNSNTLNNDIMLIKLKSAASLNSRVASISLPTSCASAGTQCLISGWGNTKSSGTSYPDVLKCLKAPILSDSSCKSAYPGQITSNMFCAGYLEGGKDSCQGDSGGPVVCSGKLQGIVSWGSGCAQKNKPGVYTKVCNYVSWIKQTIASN
Put plainly: anti-trypsin activity, hydrolysis of TAME (tosylarginine methyl ester). The conditions noted are these: hydrolysis of TAME; read-out: Try: molar concentration inhibiting 50% of enzyme activity (IC50). Type of experiment: biochemical.

In a further experiment the target is plasmin (Homo sapiens, UniProt P00747). The experiment can be described thus: anti-plasmin activity, hydrolysis of TAME (tosylarginine methyl ester). The class given is biochemical. The note with it: hydrolysis of TAME; read-out: Pla: molar concentration inhibiting 50% of enzyme activity (IC50). How it is done:
(§1) The values in Table 1 represent molar concentrations (IC50) of test compounds which inhibit 50% of the activity of each enzyme to hydrolyze TAME (tosylarginine methyl ester). The anti-trypsin, anti-plasmin, anti-kallikrein and anti-thrombin activities were determined according to the method of Muramatsu et al. (J. Biochem. (1965), volume 58, page 214).

The target of a further experiment is T2, C1r (Homo sapiens, UniProt P00736).
T2 sequence (P00736 18-705): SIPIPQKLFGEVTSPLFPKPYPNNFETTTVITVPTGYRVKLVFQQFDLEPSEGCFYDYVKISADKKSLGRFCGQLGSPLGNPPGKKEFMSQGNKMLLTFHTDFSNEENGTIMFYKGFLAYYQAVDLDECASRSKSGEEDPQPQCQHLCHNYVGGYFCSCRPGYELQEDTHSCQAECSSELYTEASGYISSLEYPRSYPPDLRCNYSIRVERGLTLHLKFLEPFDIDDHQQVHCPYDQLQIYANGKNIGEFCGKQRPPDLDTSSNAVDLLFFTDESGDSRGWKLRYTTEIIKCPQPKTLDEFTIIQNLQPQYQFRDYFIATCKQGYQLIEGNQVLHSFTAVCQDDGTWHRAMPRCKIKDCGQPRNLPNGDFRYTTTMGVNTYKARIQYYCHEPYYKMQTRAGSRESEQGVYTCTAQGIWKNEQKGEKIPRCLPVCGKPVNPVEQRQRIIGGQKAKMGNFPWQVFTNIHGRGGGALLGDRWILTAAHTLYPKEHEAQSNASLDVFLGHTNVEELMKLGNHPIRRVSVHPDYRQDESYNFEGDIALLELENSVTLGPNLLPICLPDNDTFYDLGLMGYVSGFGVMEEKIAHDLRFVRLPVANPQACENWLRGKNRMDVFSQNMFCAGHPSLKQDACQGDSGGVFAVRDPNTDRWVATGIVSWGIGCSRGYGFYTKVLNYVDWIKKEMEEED
Put plainly: anti-complement (anti-C1 esterase) activity, C1r hydrolysis of AAME (acetyl-arginine methyl ester). The conditions noted are these: hydrolysis of AAME; read-out: Clr: molar concentration inhibiting 50% of C1r activity (IC50). The class given is biochemical.

The target in a further experiment is T3, C1s (Homo sapiens, UniProt P09871).
T3 sequence (P09871 16-688): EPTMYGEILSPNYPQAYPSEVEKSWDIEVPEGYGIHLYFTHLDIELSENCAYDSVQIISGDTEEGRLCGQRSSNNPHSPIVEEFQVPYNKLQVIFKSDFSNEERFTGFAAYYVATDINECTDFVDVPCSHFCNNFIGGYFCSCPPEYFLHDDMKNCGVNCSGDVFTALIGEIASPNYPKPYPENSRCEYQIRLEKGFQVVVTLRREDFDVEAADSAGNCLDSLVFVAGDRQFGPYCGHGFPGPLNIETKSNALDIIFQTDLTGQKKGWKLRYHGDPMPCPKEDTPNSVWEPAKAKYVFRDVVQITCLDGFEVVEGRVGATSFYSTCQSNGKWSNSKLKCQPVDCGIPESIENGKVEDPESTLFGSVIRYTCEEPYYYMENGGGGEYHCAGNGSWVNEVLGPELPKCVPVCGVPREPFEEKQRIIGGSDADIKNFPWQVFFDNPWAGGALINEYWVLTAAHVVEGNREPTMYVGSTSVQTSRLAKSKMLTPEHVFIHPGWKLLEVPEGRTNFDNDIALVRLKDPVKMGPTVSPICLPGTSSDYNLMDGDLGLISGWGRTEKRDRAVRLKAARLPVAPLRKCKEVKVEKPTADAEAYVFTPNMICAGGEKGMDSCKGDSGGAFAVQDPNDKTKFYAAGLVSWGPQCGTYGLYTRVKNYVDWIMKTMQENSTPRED
The experiment can be described thus: anti-complement (anti-C1 esterase) activity, C1s hydrolysis of ATEE (acetyltyrosine ethyl ester). The class given is biochemical. The note with it: hydrolysis of ATEE; read-out: Cls: molar concentration inhibiting 50% of C1s activity (IC50).

In a further experiment the test system is kallikrein. The experiment can be described thus: anti-kallikrein activity, hydrolysis of TAME (tosylarginine methyl ester). The class given is biochemical. The note with it: hydrolysis of TAME; read-out: Kal: molar concentration inhibiting 50% of enzyme activity (IC50). The protocol:
as §1

The target of the next experiment is thrombin (Homo sapiens, UniProt P00734). Put plainly: anti-thrombin activity, hydrolysis of TAME (tosylarginine methyl ester). Type of experiment: biochemical. The conditions noted are these: hydrolysis of TAME; read-out: Thr: molar concentration inhibiting 50% of enzyme activity (IC50). The protocol: as §1
The test system of a further experiment is adjuvant arthritis. The experiment can be described thus: Effectiveness in treating adjuvant arthritis (Mycobacterium butyricum). The class given is in vivo, rat. The conditions noted are these: oral, day -1 to day 13. How it is done:
Adjuvant arthritis is known as a representative model of autoimmune diseases and is a effective means of testing agents to treat human rheumatoid arthritis (Encyclopedia of Immunology, edited by I. M. Roitt, Academic Press, 1992; Otterness, I. G., et al., J. of Rheumatology (1991), volume 18, pages 505-511),
The method of experiment was as follows. A 0.6% Mycobacterium butyricum liquid paraffin suspension, 0.1 ml/animal, was administered to a rat at a subcutaneous site of left hind-limb sole to induce adjuvant arthritis. The present compound was orally administered (in the form of a suspension in water) consecutively from 1 day before the induction to 13 days after the induction. The efficacy of the present compound on adjuvant arthritis was evaluated by examining the swelling accompanied by red spots and subcutaneous knots at the fore-limb, hind-limb, tail, ear and periphery of eye with the lapse of days (on the 8th, 10th, 12th, 14th, 16th and 18th days after adjuvant administration), expressing the results in terms of scores according to the method of F. D. Wood et al. (Int. Arch. Allergy (1969), volume 35, pages 456-467), and calculating the percentage inhibition relative to the control group. Thus, the higher value of percentage inhibition indicates the higher effectiveness.

A further experiment deals with Masugi's nephritis. Put plainly: Effectiveness in treating Masugi's nephritis (experimental glomerulonephritis), protein in urine. Type of experiment: in vivo, rat. The note with it: oral, mean ± standard deviation, 7 animals, control group 40.8 ± 15.1. How it is done:
[…] […] As the index to effectiveness, the protein concentration in urine was determined. That is, when inflammation develops in the kidney, it causes damage to renal tubules, etc., and a resultant increase in protein concentration in urine.

This note sets out measurements from US5532267A, “Amidinonaphthyl furancarboxylate derivatives and acid addition salts therof” (Torii & Co., Ltd., priority 1992, dated 1996).

Structures are written as SMILES. Structures can show the parent of a compound that is named as a salt.

Chain of plasmin (P00747 581-810 limits assumed, species assumed): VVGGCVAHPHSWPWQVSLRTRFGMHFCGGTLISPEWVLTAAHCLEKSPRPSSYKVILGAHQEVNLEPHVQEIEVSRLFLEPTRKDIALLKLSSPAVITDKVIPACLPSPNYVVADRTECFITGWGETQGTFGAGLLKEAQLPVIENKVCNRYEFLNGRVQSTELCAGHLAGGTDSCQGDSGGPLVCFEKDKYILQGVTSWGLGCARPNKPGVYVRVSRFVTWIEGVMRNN
Chain of plasmin (P00747 97-580 partner limits assumed, species assumed): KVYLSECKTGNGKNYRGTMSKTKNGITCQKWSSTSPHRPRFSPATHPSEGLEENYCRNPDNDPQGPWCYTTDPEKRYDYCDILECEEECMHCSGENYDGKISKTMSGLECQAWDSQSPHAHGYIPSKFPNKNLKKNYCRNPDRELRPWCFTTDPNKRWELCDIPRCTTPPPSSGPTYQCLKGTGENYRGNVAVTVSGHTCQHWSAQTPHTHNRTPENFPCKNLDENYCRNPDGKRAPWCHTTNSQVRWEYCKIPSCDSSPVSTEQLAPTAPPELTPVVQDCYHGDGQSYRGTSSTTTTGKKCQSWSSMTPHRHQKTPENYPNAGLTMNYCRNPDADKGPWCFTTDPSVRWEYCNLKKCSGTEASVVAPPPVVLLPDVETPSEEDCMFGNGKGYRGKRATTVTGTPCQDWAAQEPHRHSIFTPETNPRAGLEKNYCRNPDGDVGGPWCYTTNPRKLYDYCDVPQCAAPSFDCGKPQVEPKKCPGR
Experimental for C1s: The anti-C1 esterase (C1r, C1s) activity was determined according to the method of Okamura et al. (Biochem. Biophys. Acta (1973), volume 295, pages 252-257). […] The values for C1s represent molar concentrations (IC50) of test compounds which inhibit 50% of the activity of C1s to hydrolyze ATEE (acetyltyrosine ethyl ester).

Turning to `Cl.N=C(N)c1ccc2cc(OC(=O)c3ccc(CNC(=O)CC(=O)O)o3)ccc2c1` [Example 17, 6-Amidino-2-naphthyl 5-carboxyacetylaminomethylfuran-2-carboxylate hydrochloride], the IC50 amounted to 470 nM on trypsin; 43 nM at plasmin; 1700 nM at C1r; 53 nM on C1s; 1100 nM in the experiment with kallikrein; 1900 nM on thrombin. For the same compound, the “Percentage inhibition (arthritis score)” value with adjuvant arthritis (60 mg/kg) was 75.1%. Also, in the experiment on Masugi's nephritis (10 mg/kg), the “Protein concentration in urine” value amounted to 2.0 ± 2.0 mg/mL.

Take `CN(C)C(=O)COC(=O)CCC(=O)NCc1ccc(C(=O)Oc2ccc3cc(C(=N)N)ccc3c2)o1` [Example 31, 6-Amidino-2-naphthyl 5-(3-N,N-dimethylcarbamoylmethoxycarbonylpropionylaminomethyl)furan-2-carboxylate hydrochloride]: the IC50 on trypsin was determined as 600 nM; at plasmin it was 160 nM; on C1r, 290 nM; on C1s, 450 nM; in the experiment with kallikrein, 170 nM; at thrombin it was 150 nM. Besides, the “Percentage inhibition (arthritis score)” value with adjuvant arthritis (30 mg/kg) amounted to 67.7%.

In the case of `COC(=O)CCC(=O)NCc1ccc(C(=O)Oc2ccc3cc(C(=N)N)ccc3c2)o1.Cl` [Example 34, 6-Amidino-2-naphthyl 5-(3-methoxycarbonylpropionylaminomethyl)furan-2-carboxylate hydrochloride], the IC50 amounted to 270 nM on trypsin; 130 nM at plasmin; 330 nM on C1r; 170 nM at C1s; 130 nM in the experiment on kallikrein; 89 nM on thrombin. Besides, the “Protein concentration in urine” value in the experiment with Masugi's nephritis (30 mg/kg) came to 29.3 ± 18.8 mg/mL.
